Test results: US20110034397A1, “INTESTINAL IMMUNE SYSTEM STIMULATOR” (priority 2008, published 2011)

Key:
mouse spleen cells [1] = experiment: Antibody production by mouse spleen cells stimulated with LPS (ELISA of culture supernatant); type: cell-based; conditions: 5 μg LPS, cultured 5 days, versus phosphate buffer control, FIG. 1
Description: Six- to eight-week-old BALB mice (female) were fed for 1 week a commercially-available solid feed and provided with tap water. To evaluate the influence of γ-glutamylcysteine on antibody production, a culture system using mouse spleen cells was employed. The spleen cells were collected from the BALB-c mice (n=3), then washed and suspended in RPMI 1640 medium (10% FCS, 50 U/ml penicillin, 50 μg/ml streptomycin). The cells were adjusted so that there were 1×10^6 cells per 48-well culture plate, and then either γ-glutamylcysteine or glutathione (purchased from Sigma) each dissolved in a phosphate buffer, was added to the plates. A phosphate buffer was added to plates as a control. Then, the cells were stimulated with 5 μg of LPS (lipopolysaccharide, obtained from Sigma). […] The cells were then cultured in a CO2 incubator at 37° C. for 5 days, and the amounts of the antibodies in the supernatant were analyzed. The amounts of IgA and IgG were measured by the ELISA method. […] The reaction was stopped with 100 μl of 3 M NaOH/well, and the absorbance was measured at 405 nm. IgA was measured in accordance with the same method as for IgG except that a rat anti-mouse IgA antibody (BD Biosciences) was used as the immobilized antibody. […]

mouse spleen cells [2] = experiment: Antibody production by mouse spleen cells stimulated with ConA (ELISA of culture supernatant); type: cell-based; conditions: 0.5 μg ConA, cultured 5 days, versus control, FIG. 3
Description: Six- to eight-week-old BALB mice (female) were fed for 1 week a commercially-available solid feed and provided with tap water. To evaluate the influence of γ-glutamylcysteine on antibody production, a culture system using mouse spleen cells was employed. The spleen cells were collected from the BALB-c mice (n=3), then washed and suspended in RPMI 1640 medium (10% FCS, 50 U/ml penicillin, 50 μg/ml streptomycin). The cells were adjusted so that there were 1×10^6 cells per 48-well culture plate, and then either γ-glutamylcysteine or glutathione (purchased from Sigma) each dissolved in a phosphate buffer, was added to the plates. A phosphate buffer was added to plates as a control. […] The cells were again adjusted so that there were 1×10^6 cells per 48-well culture plate, and then stimulated with 0.5 μg of ConA (concanavalin A) in the presence or absence of γ-glutamylcysteine or glutathione. The cells were then cultured in a CO2 incubator at 37° C. for 5 days, and the amounts of the antibodies in the supernatant were analyzed. The amounts of IgA and IgG were measured by the ELISA method. The method for measuring IgG is described below. […] The reaction was stopped with 100 μl of 3 M NaOH/well, and the absorbance was measured at 405 nm. IgA was measured in accordance with the same method as for IgG except that a rat anti-mouse IgA antibody (BD Biosciences) was used as the immobilized antibody. […]

BALB/c male mice = type: in vivo, mouse; conditions: relative index, non-administered control group = 1, 10 mg/kg B.W./day by gavage, 7 days
Description: Five-week-old BALB/c male mice (n=6) were fed for 1 week and then used in this experiment. A commercially-available feed was used, and the mice' access to the feed was unrestricted, and tap water was provided. γ-Glutamylcysteine was dissolved in sterilized physiological saline, and gavage administration was performed at 10 mg/kg B.W./day. The administration period was 7 days. During the administration period, the body weights were measured every day immediately before the administration to determine the dosage. There was no difference between the body weights of the different groups. On day 7 after the start of the test, a necropsy examination was performed. Anesthesia was performed by interperitoneal administration with a pentobarbital formulation. At laparotomy, blood was collected from the abdominal aorta. The small intestinal contents were also collected. Serum was collected from the blood, and the total IgA and total IgG concentrations were measured using an ELISA kit. The intestinal contents were diluted 10-fold with PBS and suspended sufficiently, and centrifugation was then performed to separate the […]. The total IgA concentration was measured by ELISA in the same way as in Example 1. In the table, γ-EC represents γ-glutamylcysteine. […] However, the amounts of serum IgA and serum IgG were found not to increase, and it was confirmed that the peptide was able to stimulate the immunoactivity in the intestinal mucosa.

Structure (SMILES): N[C@@H](CCC(=O)N[C@@H](CS)C(=O)O)C(=O)O [γ-glutamylcysteine, γ-Glutamylcysteine]
- amounts of IgA produced (mouse spleen cells [1]): increase production of IgA as compared with glutathione
- amounts of IgA produced (mouse spleen cells [2]): increase production of IgA as compared with glutathione
- Serum IgA (BALB/c male mice): 0.3
- Serum IgG (BALB/c male mice): 0.6
- Small intestine IgA (BALB/c male mice; total IgA in small intestinal contents): 3.0
